Measurements taken from paper PMC8956739, “A synthetic lipopeptide targeting top-priority multidrug-resistant Gram-negative pathogens” (Nature Communications, 2022).
In brackets after ≈: the same amount, converted by molar mass. Read-outs that look alike come from different tables or passages of the source. Residues, ends and D or L forms follow the SMILES beside them.

Legend:
Swiss mice, kidney = assay: Nephrotoxicity in mice (kidney histopathology); assay type: in vivo, mouse
Summary of the method: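 Female Swiss mice (7-week-old, 22–28 g) received lipopeptides in saline either s.c. at 12 mg/kg ×6 every 2 h (total 72 mg/kg, n = 3) or i.p. at 20 or 25 mg/kg ×6 every 2 h (total 120 mg/kg, n = 6; 150 mg/kg, n = 3). Right kidney collected 20 h after last dose, fixed in 10% buffered formalin (pH 7.4), histology scored blinded.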

Swiss mice = assay: Acute toxicity in mice (maximum tolerated dose, IV bolus); assay type: in vivo, mouse; conditions: replicates 1-4
Summary of the method: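 Female Swiss mice (7 weeks, 22–28 g) given single IV tail-vein bolus of lipopeptide in 0.9% saline, dosed as mg/kg free base. Clinical toxicity signs monitored over 0–24 h, most frequently in first 2 h.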

A. baumannii AB5075 = assay type: cell-based, Acinetobacter baumannii; conditions: AB5075
Summary of the method: (§1)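 Cation-adjusted Mueller–Hinton broth was used with the broth microdilution method to set MICs against clinical isolates. A separate run on P. aeruginosa ATCC 27853 added 10% Survanta® (v/v, 2.5 mg/mL phospholipids) to gauge lung-surfactant binding of polymyxins.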

A. baumannii ATCC 19606 = assay type: cell-based, Acinetobacter baumannii; conditions: ATCC 19606
Summary of the method: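 Broth microdilution, CaMHB; MIC read as the antibacterial endpoint against ATCC reference strains and clinical isolates.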

A. baumannii FADDI-AB030 = assay type: cell-based, Acinetobacter baumannii; conditions: FADDI-AB030
Summary of the method: as §1

A. baumannii FADDI-AB034 = assay type: cell-based, Acinetobacter baumannii; conditions: FADDI-AB034
Summary of the method: as §1

[1] = system: MDR clinical isolates of A. baumannii (n = 210, 200 carbapenem-resistant); assay type: cell-based, Acinetobacter baumannii
Summary of the method: as §1

[2] = system: MDR clinical isolates of P. aeruginosa (n = 213, 55 carbapenem-resistant); assay type: cell-based, Pseudomonas aeruginosa
Summary of the method: as §1

P. aeruginosa ATCC 27853 = assay type: cell-based, Pseudomonas aeruginosa
Summary of the method: as §1

[3] = system: P. aeruginosa FADDI-PA025; assay type: cell-based, Pseudomonas aeruginosa; conditions: FADDI-PA025
Summary of the method: as §1

[4] = system: P. aeruginosa FADDI-PA038; assay type: cell-based, Pseudomonas aeruginosa; conditions: carbapenem-resistant isolate
Summary of the method: as §1

[5] = system: K. pneumoniae FADDI-KP032; assay type: cell-based, Klebsiella pneumoniae; conditions: carbapenem-resistant isolate
Summary of the method: as §1

[6] = system: K. pneumoniae FADDI-KP065; assay type: cell-based, Klebsiella pneumoniae; conditions: carbapenem-resistant isolate
Summary of the method: as §1

[7] = Cell viability after 24 h treatment; assay type: cell-based, human; conditions: human, KCNJ16 knockout HK-2 cells (kidney proximal tubular), Cell viability, KCNJ16 KO, KCNJ16 knockout HK-2 cells, 24 h, Fig. 6b
Procedure: (§2) Fig. 6 Transcriptomic changes in human kidney proximal tubular HK-2 cells following treatments with polymyxin B (PMB), colistin (COL), F287, F319, and F365. a Numbers of differentially expressed genes. Distinctive intersections are color-coded. b Cell viability difference (two-tailed Student’s t-test, n = 4 biologically independent cells, Benjamini–Hochberg adjusted P-values) between wild-type HK-2 and KCNJ16 knockout (KO) cells following 24 h treatment with lipopeptides. n.s., not significant; ^*adjusted P < 0.05, ^**adjusted P < 0.01, ^***adjusted P < 0.001. Data are shown as mean ± s.d. and individual data points. c Extracted transcriptional regulatory network from Signor database with 1-step neighbor constraints (enlarged for detail). Source data are provided as a Source Data file.

[8] = system: KCNJ16 knockout HK-2 cells; assay: Cell viability after 24 h treatment; assay type: cell-based, human; conditions: 24 h treatment
Procedure: as §2

[9] = 150 mg/kg/d IP in 6 divided doses every 2 h
[10] = MDR clinical isolates of (n = 210, 200 carbapenem-resistant)
[11] = MDR clinical isolates of (n = 213, 55 carbapenem-resistant)

Q: Which results are given for `CC[C@@H]1NC(=O)[C@@H](CC(C)C)NC(=O)[C@H](CCN)NC(=O)[C@@H](NC(=O)[C@H](CN)NC(=O)[C@@H](NC(=O)[C@H](CCN)NC(=O)c2ccc(Cl)cc2Cl)[C@@H](C)O)CCNC(=O)[C@H]([C@@H](C)O)NC(=O)[C@H](CCN)NC(=O)[C@H](CCN)NC1=O` [Lipopeptide F365] (HELM PEPTIDE1{[O=C(c1ccc(Cl)cc1Cl)[*:2]].[Dab].T.[NC[C@H](N[*:1])C(=O)[*:2]].[Dab].[Dab].[dL].[Abu].[Dab].[Dab].T}$PEPTIDE1,PEPTIDE1,5:R3-11:R2$$$V2.0)?
A: Kidney histopathology (SQS Score) (Swiss mice, kidney; 72 mg/kg/d subcutaneously in six divided doses every 2 h, n = 3): 0 (SQS 0 = no significant change (overall score, <1)); SQS score (Swiss mice, kidney; [9]): 0 (SQS 0 = no significant change (overall score, <1)); mice with the SQS score (Swiss mice, kidney; [9]): 3/3; Kidney histopathology, mice with the SQS score (Swiss mice, kidney; mouse, in vivo): 3/3; Kidney histological damage, mice with the given grade (Swiss mice, kidney; mouse, in vivo, ip, 120 mg/kg/day): 6/6; Kidney damage (Swiss mice, kidney; mouse, in vivo, ip, 150 mg/kg): no significant damage to the kidneys; MTD, single replicate (Swiss mice): 10.1 mg/kg; MIC A. baumannii AB5075 (A. baumannii AB5075): 0.5 µg/mL (≈ 0.431 µM); MIC A. baumannii ATCC 19606 (A. baumannii ATCC 19606): 0.25 µg/mL (≈ 0.215 µM); MIC A. baumannii FADDI-AB030 (A. baumannii FADDI-AB030): 0.25 µg/mL (≈ 0.215 µM); MIC A. baumannii FADDI-AB034 (A. baumannii FADDI-AB034): 0.25 µg/mL (≈ 0.215 µM); MIC50 [1, 10]: 0.25 µg/mL (≈ 0.215 µM); MIC90 [1, 10]: 1 µg/mL (≈ 0.862 µM); potency relative to polymyxin B ([1]; MIC50/MIC90, A. baumannii panel): ≤ 4 fold; Number of isolates ([1]; isolates with MIC 0.05 µg/mL): 1; Number of isolates ([1]; isolates with MIC 0.125 µg/mL): 7; Number of isolates ([1]; isolates with MIC 0.25 µg/mL): 99; Number of isolates ([1]; isolates with MIC 0.5 µg/mL): 81; Number of isolates ([1]; isolates with MIC 1 µg/mL): 8; Number of isolates ([1]; isolates with MIC 2 µg/mL): 9; Number of isolates ([1]; isolates with MIC 4 µg/mL): 1; Number of isolates ([1]; isolates with MIC 8 µg/mL): 0; Number of isolates ([1]; isolates with MIC 16 µg/mL): 1; Number of isolates ([1]; isolates with MIC 32 µg/mL): 2; Number of isolates ([1]; isolates with MIC 64 µg/mL): 1; Number of isolates ([1]; isolates with MIC >64 µg/mL): 0; MIC50 [2, 11]: 0.5 µg/mL (≈ 0.431 µM); MIC90 [2, 11]: 1 µg/mL (≈ 0.862 µM); potency relative to polymyxin B ([2]; MIC50/MIC90, P. aeruginosa panel): 2 fold; Number of isolates ([2]; isolates with MIC 0.05 μg/mL (so in the source)): 1; Number of isolates ([2]; isolates with MIC 0.125 μg/mL (so in the source)): 6; Number of isolates ([2]; isolates with MIC 0.25 μg/mL (so in the source)): 28; Number of isolates ([2]; isolates with MIC 0.5 μg/mL (so in the source)): 159; Number of isolates ([2]; isolates with MIC 1 μg/mL (so in the source)): 13; Number of isolates ([2]; isolates with MIC 2 μg/mL (so in the source)): 1; Number of isolates ([2]; isolates with MIC 4 μg/mL (so in the source)): 2; Number of isolates ([2]; isolates with MIC 8 μg/mL (so in the source)): 0; Number of isolates ([2]; isolates with MIC 16 μg/mL (so in the source)): 1; Number of isolates ([2]; isolates with MIC 32 μg/mL (so in the source)): 0; Number of isolates ([2]; isolates with MIC 64 μg/mL (so in the source)): 0; Number of isolates ([2]; isolates with MIC >64 μg/mL (so in the source)): 2; impact of lung surfactant on MIC (P. aeruginosa ATCC 27853; 10% Survanta vs none): not impacted; MIC P. aeruginosa ATCC 27853 (P. aeruginosa ATCC 27853; ATCC 27853): 0.5 µg/mL (≈ 0.431 µM); MIC, No Survanta (P. aeruginosa ATCC 27853; ATCC 27853): 0.5 µg/mL (≈ 0.431 µM); MIC P. aeruginosa FADDI-PA025 [3]: 0.5 µg/mL (≈ 0.431 µM); MIC P. aeruginosa FADDI-PA038 [4]: 0.5 µg/mL (≈ 0.431 µM); MIC K. pneumoniae FADDI-KP032 [5]: <0.125 µg/mL; MIC K. pneumoniae FADDI-KP065 [6]: <0.125 µg/mL; viability at 24 h ([7]; Rep1, replicate 1, read-out: Cell viability, KCNJ16 KO, Rep1): 76%; viability at 24 h ([7]; Rep2, replicate 2, read-out: Cell viability, KCNJ16 KO, Rep2): 94.1%; viability at 24 h ([7]; Rep3, replicate 3, read-out: Cell viability, KCNJ16 KO, Rep3): 100%; viability at 24 h ([7]; Rep4, replicate 4, read-out: Cell viability, KCNJ16 KO, Rep4): 73.7%; effect on cell viability [8]: no effect on cell viability
